# Results from ChEMBL document CHEMBL1144170, “Syntheses and structure-activity relationships of novel, potent, and selective trans-2-[3-oxospiro[isobenzofuran-1(3H),1'-cyclohexan]-4'-yl]benzimidazole NPY Y5 receptor antagonists” (Bioorg Med Chem Lett, 2008).
# What was measured:
# [1] = target: T1, Neuropeptide Y receptor type 5 (Homo sapiens, UniProt Q15761); assay: Displacement of [125I]PYY from human recombinant NPYY5 receptor expressed in mouse LMtk cells; format: cell-based
# T1 sequence (Q15761 whole entry): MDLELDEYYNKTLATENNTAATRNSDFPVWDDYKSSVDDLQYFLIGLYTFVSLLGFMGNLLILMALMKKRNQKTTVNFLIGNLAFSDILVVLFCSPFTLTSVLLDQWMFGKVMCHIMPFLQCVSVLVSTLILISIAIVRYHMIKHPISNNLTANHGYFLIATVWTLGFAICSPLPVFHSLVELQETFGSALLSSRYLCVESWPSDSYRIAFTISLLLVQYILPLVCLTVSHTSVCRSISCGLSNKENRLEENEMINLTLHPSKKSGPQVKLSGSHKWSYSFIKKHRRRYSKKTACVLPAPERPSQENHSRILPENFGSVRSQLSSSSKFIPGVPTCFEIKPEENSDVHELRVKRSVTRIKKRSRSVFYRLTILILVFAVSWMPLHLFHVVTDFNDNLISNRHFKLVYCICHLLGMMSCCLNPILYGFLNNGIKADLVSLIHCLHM
# [2] = target: T2, Neuropeptide Y receptor type 1 (Homo sapiens, UniProt P25929); assay: Inhibition of NPYY1 receptor
# T2 sequence (P25929 whole entry): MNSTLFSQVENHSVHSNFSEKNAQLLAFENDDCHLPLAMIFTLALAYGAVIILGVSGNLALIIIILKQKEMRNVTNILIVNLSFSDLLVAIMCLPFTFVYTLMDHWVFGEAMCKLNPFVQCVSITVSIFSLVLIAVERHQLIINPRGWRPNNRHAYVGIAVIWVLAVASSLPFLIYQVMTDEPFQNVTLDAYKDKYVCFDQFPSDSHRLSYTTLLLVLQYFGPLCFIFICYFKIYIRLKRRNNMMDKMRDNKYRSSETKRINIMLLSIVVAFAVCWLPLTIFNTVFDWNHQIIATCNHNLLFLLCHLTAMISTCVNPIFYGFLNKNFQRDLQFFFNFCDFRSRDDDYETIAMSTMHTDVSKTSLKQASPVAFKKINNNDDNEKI
# [3] = target: T3, Neuropeptide Y receptor type 2 (Homo sapiens, UniProt P49146); assay: Inhibition of NPYY2 receptor
# T3 sequence (P49146 whole entry): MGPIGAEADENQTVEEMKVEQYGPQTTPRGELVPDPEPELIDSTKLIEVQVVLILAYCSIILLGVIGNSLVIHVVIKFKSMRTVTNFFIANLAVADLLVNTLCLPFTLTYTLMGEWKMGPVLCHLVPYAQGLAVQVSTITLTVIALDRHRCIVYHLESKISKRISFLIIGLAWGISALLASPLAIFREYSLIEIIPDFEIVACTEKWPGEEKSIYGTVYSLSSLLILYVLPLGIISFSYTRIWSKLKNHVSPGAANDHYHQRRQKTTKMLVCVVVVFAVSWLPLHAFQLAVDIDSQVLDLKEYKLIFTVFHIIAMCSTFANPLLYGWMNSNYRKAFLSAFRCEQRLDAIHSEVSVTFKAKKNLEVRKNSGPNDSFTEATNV
# [4] = target: Neuropeptide Y receptor type 4 (Homo sapiens, UniProt P50391); assay: Inhibition of NPYY4 receptor
# [5] = target: T1, Neuropeptide Y receptor type 5; assay: Antagonist activity at human recombinant NPYY5 receptor expressed in mouse LMtk cells assessed as inhibition of NPY-induced calcium increase; format: functional, cell-based
# [6] = Plasma concentration in rat plasma at 10 mg/kg, po after 2 hrs; format: ADME, organism-based; set-up: dose 10 mg/kg, route oral; conditions: read-out: Drug uptake
# [7] = Selectivity for human NPYY5 receptor over NPYY1 receptor
# [8] = Selectivity for human NPYY5 receptor over NPYY2 receptor
# [9] = Selectivity for human NPYY5 receptor over NPYY4 receptor
# [10] = Plasma concentration in rat plasma at 2.7 mg/kg, iv after 10 mins; format: ADME, organism-based; set-up: dose 2.7 mg/kg, route intravenous; conditions: read-out: Drug uptake
# Brain = assay: Drug level in rat brain at 2.7 mg/kg, iv after 10 mins; format: ADME, organism-based; set-up: dose 2.7 mg/kg, route intravenous; conditions: in vivo
# [11] = Ratio of drug level in brain to plasma at 2.7 mg/kg, iv after 10 mins; format: ADME, organism-based; set-up: dose 2.7 mg/kg, route intravenous; conditions: rat, read-out: BPR
# [12] = Solubility in 0.2 M phosphate buffer at pH 6.8; format: physicochemical
# [13] = Plasma concentration in rat plasma at 10 mg/kg, po after 4 hrs; format: ADME, organism-based; set-up: dose 10 mg/kg, route oral; conditions: read-out: Drug uptake
# [14] = Ratio of drug level in brain to plasma in rat at 10 mg/kg, po after 2 hrs; format: ADME, organism-based; set-up: dose 10 mg/kg, route oral
# Sequence of Neuropeptide Y receptor type 4 (P50391 whole entry): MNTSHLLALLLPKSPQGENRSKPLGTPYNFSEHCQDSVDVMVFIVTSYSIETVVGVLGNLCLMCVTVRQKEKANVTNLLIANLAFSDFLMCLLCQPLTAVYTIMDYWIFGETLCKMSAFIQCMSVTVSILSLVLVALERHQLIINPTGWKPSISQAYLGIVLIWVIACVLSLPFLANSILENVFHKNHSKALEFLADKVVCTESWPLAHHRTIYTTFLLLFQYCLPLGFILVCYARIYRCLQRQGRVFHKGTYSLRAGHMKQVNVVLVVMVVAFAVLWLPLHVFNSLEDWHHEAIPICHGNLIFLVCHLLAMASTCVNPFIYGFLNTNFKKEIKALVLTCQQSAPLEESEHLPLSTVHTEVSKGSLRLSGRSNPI
smiles,measurement,setting,value
N#Cc1ccc2[nH]c([C@H]3CC[C@@]4(CC3)OC(=O)c3ccccc34)nc2c1,IC50,[1],20 nM
Cc1nc(-c2ccc3[nH]c([C@H]4CC[C@@]5(CC4)OC(=O)c4ccccc45)nc3c2)no1,IC50,[1],5.1 nM
same,IC50,[2],> 10000 nM
same,IC50,[3],> 10000 nM
same,IC50,[4],> 10000 nM
same,IC50,[5],7 nM
same,concentration at 2 h,[6],400 nM
same,Selectivity ratio,[7],1000
same,Selectivity ratio,[8],1000
same,Selectivity ratio,[9],1000
O=C1O[C@]2(CC[C@H](c3nc4cc(Cl)c(Cl)cc4[nH]3)CC2)c2ccccc21,IC50,[1],8 nM
O=C1O[C@]2(CC[C@H](c3nc4cc(Br)ccc4[nH]3)CC2)c2ccccc21,IC50,[1],45 nM
COC(=O)c1ccc2[nH]c([C@H]3CC[C@@]4(CC3)OC(=O)c3ccccc34)nc2c1,IC50,[1],7.7 nM
same,concentration at 10 min,[10],3100 nM
same,Drug uptake,Brain,1.7 nmol/g
same,Kp at 10 min,[11],0.55
same,solubility,[12],0.6 µg/mL
O=C1O[C@]2(CC[C@H](c3nc4cc(Cl)ccc4[nH]3)CC2)c2ccccc21,IC50,[1],39 nM
O=C1O[C@]2(CC[C@H](c3nc4cc(C(F)(F)F)ccc4[nH]3)CC2)c2ccccc21,IC50,[1],47 nM
O=C1O[C@]2(CC[C@H](c3nc4ccccc4[nH]3)CC2)c2ccccc21,IC50,[1],91 nM
Cc1nnc(-c2ccc3[nH]c([C@H]4CC[C@@]5(CC4)OC(=O)c4ccccc45)nc3c2)o1,IC50,[1],3.3 nM
same,IC50,[2],> 10000 nM
same,IC50,[3],> 10000 nM
same,IC50,[4],> 10000 nM
same,IC50,[5],5.5 nM
same,concentration at 2 h,[6],1400 nM
same,concentration at 4 h,[13],850 nM
same,Kp at 2 h,[14],0.05
same,solubility,[12],0.94 µg/mL
same,Selectivity ratio,[7],1000
same,Selectivity ratio,[8],1000
same,Selectivity ratio,[9],1000
O=C1O[C@]2(CC[C@H](c3nc4ccc(-c5ccccc5)cc4[nH]3)CC2)c2ccccc21,IC50,[1],2.3 nM
Cn1nnc(-c2ccc3[nH]c([C@H]4CC[C@@]5(CC4)OC(=O)c4ccccc45)nc3c2)n1,IC50,[1],5.9 nM
same,IC50,[2],> 10000 nM
same,IC50,[3],> 10000 nM
same,IC50,[4],> 10000 nM
same,IC50,[5],7.2 nM
same,concentration at 2 h,[6],3200 nM
same,concentration at 4 h,[13],990 nM
same,Kp at 2 h,[14],0.12
same,solubility,[12],5.9 µg/mL
same,Selectivity ratio,[7],1000
same,Selectivity ratio,[8],1000
same,Selectivity ratio,[9],1000
O=C1O[C@]2(CC[C@H](c3nc4cc(Cl)c(C(F)(F)F)cc4[nH]3)CC2)c2ccccc21,IC50,[1],2.6 nM
same,solubility,[12],< 0.01 µg/mL
Cn1c2cc(Cl)c(Cl)cc2nc1[C@H]1CC[C@@]2(CC1)OC(=O)c1ccccc12,IC50,[1],> 1000 nM
COC(=O)c1cc2[nH]c([C@H]3CC[C@]4(CC3)OC(=O)c3ccccc34)nc2cc1Cl,IC50,[1],1000 nM
O=C1O[C@]2(CC[C@H](c3nc4cc(-c5noc(C(F)(F)F)n5)ccc4[nH]3)CC2)c2ccccc21,IC50,[1],2.1 nM
COC(=O)c1cc2[nH]c([C@H]3CC[C@@]4(CC3)OC(=O)c3ccccc34)nc2cc1Cl,IC50,[1],2.2 nM
O=C1O[C@]2(CC[C@H](c3nc4cc(Cl)c(-c5ccccc5)cc4[nH]3)CC2)c2ccccc21,IC50,[1],2.2 nM
O=C1O[C@]2(CC[C@H](c3nc4ccc(-c5ccc(F)cc5)cc4[nH]3)CC2)c2ccccc21,IC50,[1],1.7 nM
O=C1O[C@]2(CC[C@H](c3nc4cc(-c5ccccn5)ccc4[nH]3)CC2)c2ccccc21,IC50,[1],2.4 nM
O=C1O[C@]2(CC[C@H](c3nc4cc(-c5cccnc5)ccc4[nH]3)CC2)c2ccccc21,IC50,[1],3.1 nM
O=C(c1ccccc1)c1ccc2[nH]c([C@H]3CC[C@@]4(CC3)OC(=O)c3ccccc34)nc2c1,IC50,[1],2.4 nM
COC(=O)c1ccc2[nH]c([C@H]3CC[C@@]4(CC3)OC(=O)c3ccccc34)nc2c1Cl,IC50,[1],4.5 nM
Cc1nnc(-c2ccc3[nH]c([C@H]4CC[C@]5(CC4)OC(=O)c4ccccc45)nc3c2)o1,IC50,[1],1000 nM
O=C1O[C@]2(CC[C@H](c3nc4cc(-c5nnco5)ccc4[nH]3)CC2)c2ccccc21,IC50,[1],15 nM
